Experimental data from patent publication US6797728B2, “Use of intracellular calcium chelators to increase surfactant secretion in the lungs” (Thomas Jefferson University, priority 2000, dated 2004).
Like-named read-outs stand apart in the source and are kept apart here.

How the values were obtained:
[1] = tested on: alveolar type II cells; assay: Surfactant secretion assay (secretion of 3H-labeled phospholipid by type II cells); type: cell-based, rat; conditions: for effect of re-adding calcium after overnight depletion on secretagogue-induced PL secretion: Ca2+ added back to 1.64 mM at start of the 2 hr secretion assay; for effect of calcium depletion on secretagogue-stimulated PL secretion: cells in Ca2+-free medium overnight and during the 2 h assay, ATP 500 μM, TG 10 μM, Io 1 μM, PMA 50 ng/ml, BAPTA-AM 25 μM; for effect of removing extracellular Ca2+ during the assay on secretagogue-elicited surfactant secretion: normal medium overnight, Ca2+-free medium for the 2 h assay, FIG. 4; for % PL secreted: BAPTA 25 μM, SP-A 100 ng/ml, alone or together, percentage of 3H-labeled phospholipid secreted, no additions 8.33
Experimental: Freshly isolated type II cells were prepared according to standard techniques, originally described by Dobbs (Dobbs, et al, AM. Rev. Respir. Dis. 134, 141-145, 1986), and later modified by Sen and Chander (Sen and Chander, Biochem. J. 298: 681-687, 1994). The use of these techniques has been previously reported. (Strayer, et al, Ex. Cell Res. 226: 90-97, 1996; Strayer, et al, Rec. Signal Transd. 7: 111-120, 1997). Briefly, lungs of anesthetized rats were cleared of blood and treated with elastase endotracheally (Worthington Biochemical, Freehold, N.J.) to obtain free cells. The cells were separated from lung debris and plated on bacteriological plates coated with normal rat IgG (Sigma Chemical Co., St. Louis, Mo.). After 1 hr, free cells were collected by panning, pelleted, and resuspended (0.8×10^6 cells/ml) in minimum essential medium (MEM)+10% fetal bovine serum (FCS, Life Technologies, Gaithersburg, Md.).
Secretion studies were performed as described by Sen and Chander. (Sen and Chander, Biochem. J. 298: 681-687, 1994). Briefly, 0.8×10^6 alveolar type II cells were cultured for 18 h in MEM with 10% FBS+0.5 μCi of [methyl-^3H]-choline (Amersham, Arlington Heights, Ill.) to label cellular phospholipids (PL) metabolically. Cells were washed to remove non-adherent cells and unincorporated radioactivity. After replacing this medium with fresh MEM, plates were incubated for 15 min. SP-A (100 ng/ml) was added to selected plates, followed by incubation for an additional 15 min.; secretagogues were then added at the appropriate concentrations [control (no addition), ATP (500 μM), TG (10 μM), ionomycin (1 μM), PMA (50 ng/ml)]. At this point (t=0) in each experiment, some samples were removed for analysis of secreted labeled lipids to establish a baseline. Incubation proceeded for an additional 2 h for all other plates. Following this incubation, media were removed and centrifuged (15 min., 300×g) to pellet cells that detached during incubation. These cells were later pooled with those recovered from the plates. Lipids from both media and plates were extracted (Sen and Chander, Biochem. J. 298: 681-687, 1994) after adding [methyl-^14C]-DPPC (Amersham, Arlington Heights, Ill.) as a recovery standard, and egg phosphatidylcholine (Sigma Chemical Co., St. Louis, Mo.) as a carrier lipid. Recovered lipids were dissolved in Scintiverse II fluid (Fisher Scientific, Pittsburgh, Pa.) and the radioactivity of these lipid extracts measured with a scintillation counter (Beckman Instruments, Fullerton, Calif.). ^3H-labeled phospholipid recovery was normalized to recovery of [methyl-^14C]-DPPC. Phospholipid secretion was determined as percent secretion=(cpm in lipids recovered from media×100)/(cpm in lipids recovered from media and plates).

[2] = tested on: type II cells; assay: Type II cell viability by trypan blue exclusion; conditions: at the concentrations of FIG. 2; compared to each other and to untreated type II cells
Experimental: (§1) Viability of type II cells was tested both by trypan blue exclusion, and by tetrazolium/formazan assay (Promega Corp., Madison, Wis.), which measures mitochondrial dehydrogenases. These enzymes are only present in active form in living cells and are absent in nonviable cells. […] For such studies, an assay solution containing the tetrazolium compound (3-(4,5-dimethylthiazol-2-yl)-5-(3-carboxymethoxyphenyl)-2-(4-sulfonyl)-2H-tetrazolium, inner salt; MTS) and an electron-coupling reagent (phenazine methosulfate; PMS) in MEM is added to the cells. […] Correction was made for the small effect of BAPTA itself on this reaction by running a parallel assay on plates with no cells.
(§2) In these studies, cellular viability was determined in two ways. Viable cells enumerated by counting trypan blue-excluding cells. […] In addition, cellular viability in BAPTA-AM-treated cultures was measured using the tetrazolium/formazan assay for mitochondrial dehydrogenase.

[3] = tested on: [Ca^2+]l in type II cells; assay: ER (lumenal) calcium concentration, fura2ff fluorescence with Mn2+ quench; type: cell-based, rat; conditions: fura2ff 340/380 nm ratio, Mn2+ added, FIG. 7
Experimental: Type II cells were prepared as described and plated on glass coverslips that had been pretreated with poly-L-lysine (Sigma, 0.01%, 20° C., 15 mins). After incubation overnight at 37° C. in MEM-10% FCS, the cells were washed three times with serum-free MEM and once with loading buffer (121 mM NaCl, 4.7 mM KCl, 1.2 mM KH2P04, 1.2 mM MgSO4, 2% BSA, 10 mM glucose, 20 mM HEPES, 2 mM CaCl2). The cells were loaded in loading buffer containing 10 μM Fura-2FF(AM) (Teflabs, Austin, Tex.) and 0.06% Pluronic Acid (Molecular Probes, Inc.) for two hours with shaking at 37° C. The coverslip was washed in calcium-free imaging buffer (121 mM NaCl, 4.7 mM KCl, 1.2 mM KH2PO4, 1.2 mM MgSO4, 10 mM glucose, 20 mM HEPES), inserted into a thermostatically regulated chamber (37° C.), and mounted on an inverted fluorescence microscope in 1 ml of imaging buffer. Fluorescence imaging following excitation at 340 nm and 380 nm was performed (supra).
During imaging MnCl2 was added at time=0 to a final concentration of 500 μM followed by either SP-A, ionomycin, or TG (final concentrations 100 ng/ml, 1 μM and 4 μM respectively).
Decreases in [Ca^2+]l, rather than increases in [Ca^2+]i, were hypothesized to be the critical regulator of surfactant secretion by all secretagogues, with the exception of PMA. This theory predicts that BAPTA-AM, and other calcium-dependent secretagogues, would decrease [Ca^2+]l, but that PMA would not. Thus, type II cells were loaded with fura2ff. This fluorophore has a much lower affinity for calcium in the μM range than fura2 does, and is therefore used to assess changes in [Ca^2+]l. Type II cells were also treated with Mn^2+, which binds cytoplasmic fura2ff and prevents its binding to Ca^2+. (Dorn, et al, Br. J. Pharmacol. 97: 163-170, 1989; Kuroki, et al, Biochem. J. 115: 115-119, 1991; Miyata, et al, Am. J. Physiol. 261: H1123-H1134, 1991). Any changes in the lumenal free calcium concentration were measured as changes in the ratio of fura2ff excitation at 340 nm to that at 380 nm. […] PMA had no effect.

[4] = read-out: affinity of BAPTA for calcium; cited from earlier work
[5] = tested on: [Ca^2+]i in type II cells; assay: Cytosol free calcium concentration, fura2 digital imaging fluorescence microscopy; type: cell-based, rat; conditions: fura2 340/380 nm ratio, compared to mock-treated cells
Experimental: 10^6 freshly isolated type II cells were added to 35 mm tissue culture plates, each containing a polylysine (Sigma Chemical Co.) coated 25 mm diameter coverslip and incubated (37° C., 5% CO2) for at least 2 hr. Twenty min before use, Fura2/AM (Molecular Probes) was added (final concentration, 3 μM) to each coverslip. After Fura2 loading, the coverslips were washed with cell incubation buffer (121 mM NaCl, 4.7 mM KCl, 1.2 mM KH2PO4, 1.2 mM MgSO4, 2 mM CaCl2, 10 mM glucose, 5 mM NaHCO3, 0.2% BSA, and 10 mM HEPES/NaOH, pH 7.4) and inserted into a thermostatically regulated chamber (37° C.). Cell incubation buffer was added and the whole assembly placed on the stage of a Nikon Diaphot inverted microscope. At appropriate times (see infra), secretagogues in the appropriate concentration (see supra) were added. Fluorescence images of the cells were collected by exciting the cells alternately at 340 and 380 nm and measuring emission at 500 nm using a charge-coupled device camera (Photometrics, Inc.) as described previously. (Rooney, et al, Biol. Chem 264: 17131-17141, 1989). Image acquisition and analysis were done with Macintosh computers running customized image-processing software. The ratio (340/380) of Fura2 excitation was calibrated to [Ca^2+]i as described. (Rooney, et al, Biol. Chem 264: 17131-17141, 1989; Grynkiewicz, et al, J. Biol. Chem. 260: 3440-3450, 1985).

[6] = tested on: type II cells
Experimental: as §1, §2

[7] = tested on: type II cells; remark: listed apart in the source
Experimental: as §1, §2

[8] = tested on: alveolar type II cells; assay: Surfactant secretion assay (secretion of 3H-labeled phospholipid by type II cells); type: cell-based, rat; conditions: within 4 hours of treatment; control cells release about 7%

For c1ccc(CN(CCN(Cc2ccccn2)Cc2ccccn2)Cc2ccccn2)nc1 [TPEN, N,N,N′,N′-tetrakis-(2-pyridylmethyl) ethylenediamine], the secretagogue activity ([1]; TPEN up to 150 μM, FIG. 2) was “no secretagogue activity” and the “effect on cell viability (trypan blue-excluding cells)” value [2] was “Neither BAPTA-AM nor TPEN at these concentrations had any effect on cell viability”.
In the case of O=C(O)CN(CC(=O)O)c1ccccc1OCCOc1ccccc1N(CC(=O)O)CC(=O)O [BAPTA, 1,2-bis(2-aminophenoxy)ethane-N,N,N, N-tetraacetic acid], the “effect of re-adding calcium after overnight depletion on secretagogue-induced PL secretion” value (“effect of re-adding calcium” for short) [1] is reported as “restored”, the “effect of calcium depletion on secretagogue-stimulated PL secretion” value (from here on “effect of calcium depletion”) [1] is reported as “prevented BAPTA secretagogue activity” and the “surfactant secretion at 5 μM BAPTA” value ([1]; dose-response studies, concentration range of 5 μM) is reported as “below the threshold”. For the same molecule, the “concentrations at which BAPTA stimulates surfactant secretion (powerful secretagogue)” value ([1]; dose-response, FIG. 2) was 25 to 100 µM, the “effect of removing extracellular Ca2+ during the assay on secretagogue-elicited surfactant secretion” value [1] was “not significantly altered” and the “effect on lumenal free calcium concentration [Ca^2+]l” value [3] was “decreased [Ca^2+]l”. The Kd [4] was 160 nM.
With CCCCCCCCCCCCCC(=O)O[C@@H]1[C@@H](C)[C@@]2(O)[C@@H](C=C(CO)C[C@]3(O)C(=O)C(C)=C[C@@H]23)[C@@H]2C(C)(C)[C@]12OC(C)=O [PMA, phorbol 12-myristate 13-acetate] the “effect of re-adding calcium” value [1] was “increased PMA-induced secretion, but this effect was not statistically significant”, the “effect of calcium depletion” value [1] was “did not alter” and the “effect of removing extracellular Ca2+ during the assay on secretagogue-elicited surfactant secretion” value [1] was “Statistically significant but small decreases”. For the same molecule, the “effect on cytosol free calcium concentration [Ca^2+]i” value [5] was “did not alter [Ca^2+]i” and the “effect on lumenal free calcium concentration [Ca^2+]l” value [3] was “no effect”.
For CC(=O)OCOC(=O)CN(CC(=O)OCOC(C)=O)c1ccccc1OCCOc1ccccc1N(CC(=O)OCOC(C)=O)CC(=O)OCOC(C)=O [BAPTA-AM, 1,2-bis(2-aminophenoxy)ethane-N,N,N, N-tetraacetic acid acetoxymethyl ester], the “% PL secreted” value [1] was 15.47%, the “effect on cytosol free calcium concentration [Ca^2+]i” value [5] was “caused [Ca^2+]i to decrease somewhat” and the “effect on cell viability (trypan blue-excluding cells)” value [6] was “Neither BAPTA-AM nor TPEN at these concentrations had any effect on cell viability”. The “viability of treated type II cells (tetrazolium/formazan)” value [7] was “does not differ from that of control cells” and the stored surfactant released [8] was “about ⅔”.
In the case of C/C=C(/C)C(=O)O[C@H]1C(C)=C2[C@H]([C@@H]1OC(=O)CCCCCCC)[C@@](C)(OC(C)=O)C[C@H](OC(=O)CCC)[C@@]1(O)[C@H]2OC(=O)[C@@]1(C)O [TG, thapsigargin], the “effect of re-adding calcium” value [1] is reported as “restored”, the “effect of calcium depletion” value [1] is reported as “partially inhibited” and the “effect of removing extracellular Ca2+ during the assay on secretagogue-elicited surfactant secretion” value [1] is reported as “Statistically significant but small decreases”.
For C[C@H](CCC(=O)O)C[C@H](C)C[C@H](C)C(=O)/C=C(\O)[C@H](C)C[C@H](C)C/C=C/[C@@H](C)[C@@H](O)[C@@H](C)[C@@H](O)C[C@@H]1CC[C@@](C)([C@H]2CC[C@@](C)([C@@H](C)O)O2)O1 [Io, ionomycin], the “effect of re-adding calcium” value [1] was “restored”, the “effect of calcium depletion” value [1] was “prevented” and the “effect of removing extracellular Ca2+ during the assay on secretagogue-elicited surfactant secretion” value [1] was “not significantly altered”. The “effect on lumenal free calcium concentration [Ca^2+]l” value [3] was “decreased [Ca^2+]l”.
With Nc1ncnc2c1ncn2[C@@H]1O[C@H](COP(=O)(O)OP(=O)(O)OP(=O)(O)O)[C@@H](O)[C@H]1O [ATP] the “effect of calcium depletion” value [1] was “prevented”.
For surfactant-associated protein-A [SP-A], the “% PL secreted” value [1] was 4.98%, the “BAPTA-induced surfactant secretion after SP-A pretreatment” value ([1]; SP-A pretreatment, then BAPTA-AM loading concentration 25 μM, versus cells not exposed to SP-A) was “significantly less surfactant secretion” and the “effect on lumenal free calcium concentration [Ca^2+]l” value [3] was “increased [Ca^2+]l”.
